Here are results for 5 molecules from patent publication US7829666B2, “Maurotoxin, PI1 and HSTX1 derivatives” (Cellpep Pharma Inc., priority 2000, dated 2010).

Bridge positions count the residues as written; N and C are the ends. Square brackets hold non-standard residues; d marks the D form. Peptide text beside a SMILES is read from it. Abu = CC[C@H](N)C(=O)O

Data set [1] deals with Ca2+-activated K+ channels, e.g. apamin-sensitive SK channels. The note with it: background statement; cited from earlier work.
Data set [2] is described as follows: Lethality/toxicity in C57/BL6 mice, intracerebroventricular injection. Format: in vivo. The note with it: mouse, in vivo. An excerpt: (§1) The MTX derivatives, as well as the MTX structurally homologous Pi1 or HsTx1 derivatives, of the invention are thus of potential therapeutic value for treating mammalian (including human) pathologies that are associated with a dysfunctioning of Ca^2+-activated and/or voltage-gated Kv channel subtypes. Such pathologies include immune and/or neurological diseases like multiple sclerosis, Parkinson's and Alzheimer's diseases, both thought to be associated with a dysfunctioning of Ca^2+-activated and/or voltage-gated K^+ channel subtype(s). The axonal impulse propagation ensures a continued transmission of nervous signals to remote targets. In a number of neuropathies, the nervous conduction is either slowed down or locked. This could be linked to alteration or functional changes of myelinated fibres (demyelinisation or alteration of the membrane properties at the Ranvier nodes). Among these neuropathies are multiple sclerosis (central nervous system; CNS) and Guillain-Barr syndrome (peripheral nervous system). It is now well-admitted that alteration of the axonal function is related to the presence of voltage-gated (Kv) K^+ channels (there is a widespread distribution of Kv1.1 and Kv1.2 channel subtypes in nerve terminals throughout the brain, whereas Kv channels—independent of their subtypes—are considered to be ubiquitous, including in the peripheral nervous system), and possibly Ca^2+-activated K^+ channels. In the previously cited neuropathies, Ca^2+-activated K^+ channels and Kv channels are either abnormally exposed in demyelinated or inflammatory lesions, or over-expressed. Therefore, selective K^+-channel blockers, including Ca^2+-activated K^+ channel-acting and/or Kv-acting MTX/Pi1/HsTx1-derived peptides such as [Q15]-MTX, Pi1 amidated at C-terminus, [Abu9, 19, 29, 34]-MIX, are of potential therapeutic value as symptomatic therapy of multiple sclerosis and related neuropathies, as well as for use as selective immuno-suppressant drugs by their blocking action on Ca^2+-activated and/or Kv channels. Further, it can be speculated that such peptide blockers, in the CNS, could enhance transmitter release in pathways affected by progressive neurodegenerative diseases such as Alzheimer's disease.

Data set [3] deals with T1, mammalian voltage-gated Kv1.2 channel subtype (Homo sapiens, UniProt P16389). The following applies: background statement; picomolar or nanomolar concentration range; cited from earlier work.
The target of another data set is rat Kv1.3 channels (Rattus norvegicus, UniProt P15384). The note with it: background statement; cited from earlier work.
Another data set concerns C57/BL6 mice. Description: Lethality/toxicity in C57/BL6 mice, intracerebroventricular injection. The class given is in vivo.
Description: as §1

Data set [4] concerns the target T1, mammalian voltage-gated Kv1.2 channel subtype. Description: Blocking activity on voltage-gated Kv1.2 channel. The class given is cell-based. An excerpt:
(§2) In one preferred derivative, the substitution of the MTX half-cystine residues (by amino butyrate derivatives) located at positions 9, 19, 29, and 34 (corresponding by numbers to C2, C4, C6, and C8) results in a two disulfide-bridged MTX analog, i.e. VSCTGSKDAbuYAPCRKQTGAbuPNAKCINKSAbuKCYGAbu-NH2 [SEQ. ID NO. 8], with novel, non-native arrangement of the half-cystine pairings (Cys3-Cys24 and Cys13-Cys31).
An alternative approach to replacement of Cys residues with Abu is the replacement of one or two amino acid residues in natural MTX with other residues which prevent the folding of the molecule in such a way that the unconventional C1-C5, C2-C6, C3-C7 and C4-C8 disulfide bridge arrangement can occur. For instance, if neither of the residues at positions 32 and 33 is a Gly or Pro residue, the folding is altered in such a way that the MTX derivative adopts the conventional C1-C5, C2-C6, C3-C7 and C4-C8 of Pi1 and HsTx1. In particular, replacement of the Gly residue at position 33 by an Ala residue substitution, forming [A33]-MTX [SEQ. ID NO. 4], is effective. Substitution of Arg14 and/or Lys15 by Gln to give [Q14]-MTX [SEQ. ID NO. 5], [Q15]-MTX [SEQ. ID NO. 6] or [Q14,Q15]-MTX [SEQ. ID NO. 7] also induces half-cystine pairings between Cys3-Cys24, Cys9-Cys29, Cys13-Cys31 and Cys19-Cys34.

Data set [5] relates to Ca2+-activated K+ channels. Briefly: Activity of MTX analog on Ca2+-activated K+ channels. The class given is cell-based.
Description: as §2

Chain of rat Kv1.3 channels (P15384 whole entry): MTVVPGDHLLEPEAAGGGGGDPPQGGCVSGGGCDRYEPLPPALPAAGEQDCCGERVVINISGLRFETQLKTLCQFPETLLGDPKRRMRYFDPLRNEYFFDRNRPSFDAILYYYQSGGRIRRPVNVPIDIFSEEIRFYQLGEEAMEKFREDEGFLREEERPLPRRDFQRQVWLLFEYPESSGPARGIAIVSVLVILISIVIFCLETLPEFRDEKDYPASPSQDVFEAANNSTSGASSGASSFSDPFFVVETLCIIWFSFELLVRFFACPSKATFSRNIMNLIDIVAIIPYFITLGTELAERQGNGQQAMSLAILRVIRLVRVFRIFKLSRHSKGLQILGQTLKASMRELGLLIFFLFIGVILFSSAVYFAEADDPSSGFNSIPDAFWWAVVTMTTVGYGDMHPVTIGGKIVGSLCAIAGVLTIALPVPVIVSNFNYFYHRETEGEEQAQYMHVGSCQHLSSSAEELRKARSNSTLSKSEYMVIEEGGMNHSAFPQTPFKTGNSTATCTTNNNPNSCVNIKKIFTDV
T1 sequence (P16389 whole entry): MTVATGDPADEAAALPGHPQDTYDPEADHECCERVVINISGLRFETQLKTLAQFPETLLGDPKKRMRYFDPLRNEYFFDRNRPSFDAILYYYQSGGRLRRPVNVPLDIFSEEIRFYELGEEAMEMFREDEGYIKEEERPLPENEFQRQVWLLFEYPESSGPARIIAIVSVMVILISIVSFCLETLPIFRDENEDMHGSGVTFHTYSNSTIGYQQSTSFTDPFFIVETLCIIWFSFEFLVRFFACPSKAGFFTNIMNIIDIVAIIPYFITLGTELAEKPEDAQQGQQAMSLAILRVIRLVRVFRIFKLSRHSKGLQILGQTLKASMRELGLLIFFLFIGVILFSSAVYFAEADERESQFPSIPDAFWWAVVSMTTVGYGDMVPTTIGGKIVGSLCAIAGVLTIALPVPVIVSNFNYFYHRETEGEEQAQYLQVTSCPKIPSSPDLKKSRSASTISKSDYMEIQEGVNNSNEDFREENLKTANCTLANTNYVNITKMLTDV

Take `CC[C@H](C)[C@@H]1NC(=O)[C@@H]2CSSC[C@H](NC(=O)[C@H](CO)NC(=O)[C@@H](N)C(C)C)C(=O)N[C@@H]([C@@H](C)O)C(=O)NCC(=O)N[C@@H](CO)C(=O)N[C@@H](CCCCN)C(=O)N[C@@H](CC(=O)O)C(=O)N[C@@H](CSSC[C@@H](C(=O)N[C@@H](CCCCN)C(=O)N[C@H]3CSSC[C@@H](C(N)=O)NC(=O)CNC(=O)[C@H](Cc4ccc(O)cc4)NC3=O)NC(=O)[C@H](CO)NC(=O)[C@H](CCCCN)NC(=O)[C@H](CC(N)=O)NC1=O)C(=O)N[C@@H](Cc1ccc(O)cc1)C(=O)N[C@@H](C)C(=O)N1CCC[C@H]1C(=O)N[C@H]1CSSC[C@H](NC(=O)CNC(=O)[C@H]([C@@H](C)O)NC(=O)[C@H](CCC(N)=O)NC(=O)[C@H](CCCCN)NC(=O)[C@H](CCCNC(=N)N)NC1=O)C(=O)N1CCC[C@H]1C(=O)N[C@@H](CC(N)=O)C(=O)N[C@@H](C)C(=O)N[C@@H](CCCCN)C(=O)N2` [MTX] (H-VSCTGSKDCYAPCRKQTGCPNAKCINKSCKCYGC-NH2; disulfide 3-24, 9-29, 13-19, 31-34): the “activity on Ca2+-activated K+ channels, e.g. apamin-sensitive SK channels” value (from here on “activity … e.g. apamin-sensitive SK channels”) in data set [1] is recorded as “active”. Further, the LD50 (as a rule, the dose expected to kill half of the subjects tested) in data set [2] (other: intracerebroventricular) turned out to be 4 µg/kg. The “activity on voltage-gated K+ channel subtypes including Kv1.2” value in data set [3] is “active”. For the same molecule, the “activity on rat Kv1.3 channels” value on rat Kv1.3 channels was “active”.

As for `CC[C@H](C)[C@@H]1NC(=O)[C@@H]2CSSC[C@H](NC(=O)[C@H](CCCCN)NC(=O)[C@@H](NC(=O)[C@@H](N)CC(C)C)C(C)C)C(=O)N[C@@H](CCCNC(=N)N)C(=O)NCC(=O)N[C@@H]([C@@H](C)O)C(=O)N[C@@H](CO)C(=O)N[C@@H](CC(=O)O)C(=O)N[C@H]3CSSC[C@H](NC(=O)[C@H](CCSC)NC(=O)[C@H](CCCNC(=N)N)NC(=O)[C@H](CC(N)=O)NC1=O)C(=O)N[C@@H](CCCCN)C(=O)N[C@H]1CSSC[C@H](NC(=O)[C@@H]4CCCN4C(=O)[C@H](CCCNC(=N)N)NC(=O)CNC3=O)C(=O)N[C@@H](CCC(N)=O)C(=O)N[C@@H](CCC(N)=O)C(=O)N[C@@H](CCC(N)=O)C(=O)N[C@@H]([C@@H](C)O)C(=O)NCC(=O)N[C@@H](CSSC[C@@H](C(N)=O)NC(=O)CNC(=O)[C@H](Cc3ccc(O)cc3)NC1=O)C(=O)N1CCC[C@H]1C(=O)N[C@@H](CC(N)=O)C(=O)N[C@@H](CO)C(=O)N[C@@H](CCCCN)C(=O)N2` [Pi1] (H-LVKCRGTSDCGRPCQQQTGCPNSKCINRMCKCYGC-NH2; disulfide 4-25, 10-30, 14-32, 20-35; N-terminus and C-terminus assumed), the “activity … e.g. apamin-sensitive SK channels” value in data set [1] is “active”. In data set [2], the LD50 worked out at 10 µg/kg. Also, the “activity on rat Kv1.3 channels” value on rat Kv1.3 channels is “active on rat Kv1.3 channels contrary to synthetic Pi1”.

In the case of `CC[C@H](NC(=O)CNC(=O)[C@H](Cc1ccc(O)cc1)NC(=O)[C@@H]1CSSC[C@@H]2NC(=O)[C@@H]3CCCN3C(=O)[C@H](C)NC(=O)[C@H](Cc3ccc(O)cc3)NC(=O)[C@H](CC)NC(=O)[C@H](CC(=O)O)NC(=O)[C@H](CCCCN)NC(=O)[C@H](CO)NC(=O)CNC(=O)[C@H]([C@@H](C)O)NC(=O)[C@@H](NC(=O)[C@H](CO)NC(=O)[C@@H](N)C(C)C)CSSC[C@H](NC(=O)[C@H](CCCCN)NC(=O)[C@H](C)NC(=O)[C@H](CC(N)=O)NC(=O)[C@@H]3CCCN3C(=O)[C@H](CC)NC(=O)CNC(=O)[C@H]([C@@H](C)O)NC(=O)[C@H](CCC(N)=O)NC(=O)[C@H](CCCCN)NC(=O)[C@H](CCCNC(=N)N)NC2=O)C(=O)N[C@@H]([C@@H](C)CC)C(=O)N[C@@H](CC(N)=O)C(=O)N[C@@H](CCCCN)C(=O)N[C@@H](CO)C(=O)N[C@@H](CC)C(=O)N[C@@H](CCCCN)C(=O)N1)C(N)=O` [[Abu9, 19, 29, 34]-MTX, VSCTGSKDAbuYAPCRKQTGAbuPNAKCINKSAbuKCYGAbu-NH2] (H-VSCTGSKD[Abu]YAPCRKQTG[Abu]PNAKCINKS[Abu]KCYG[Abu]-NH2; disulfide 3-24, 13-31), the lethality/toxicity entry in the data set on C57/BL6 mice (injected intracerebroventricularly, up to 1.25 mg/kg) is given as “neither lethal nor toxic”. In data set [4], the midpoint of inhibition, the IC50, lay at 0.042 µM. In addition, the “activity on Ca2+-activated K+ channels” value in data set [5] is “remains active”.

For `CC[C@H](C)[C@@H]1NC(=O)[C@@H]2CSSC[C@H](NC(=O)[C@H](CO)NC(=O)[C@@H](N)C(C)C)C(=O)N[C@@H]([C@@H](C)O)C(=O)NCC(=O)N[C@@H](CO)C(=O)N[C@@H](CCCCN)C(=O)N[C@@H](CC(=O)O)C(=O)N[C@H]3CSSC[C@H](NC(=O)[C@H](CO)NC(=O)[C@H](CCCCN)NC(=O)[C@H](CC(N)=O)NC1=O)C(=O)N[C@@H](CCCCN)C(=O)N[C@H]1CSSC[C@H](NC(=O)[C@@H]4CCCN4C(=O)[C@H](C)NC(=O)[C@H](Cc4ccc(O)cc4)NC3=O)C(=O)N[C@@H](CCCNC(=N)N)C(=O)N[C@@H](CCC(N)=O)C(=O)N[C@@H](CCC(N)=O)C(=O)N[C@@H]([C@@H](C)O)C(=O)NCC(=O)N[C@@H](CSSC[C@@H](C(N)=O)NC(=O)CNC(=O)[C@H](Cc3ccc(O)cc3)NC1=O)C(=O)N1CCC[C@H]1C(=O)N[C@@H](CC(N)=O)C(=O)N[C@@H](C)C(=O)N[C@@H](CCCCN)C(=O)N2` [[Q15]-MTX] (H-VSCTGSKDCYAPCRQQTGCPNAKCINKSCKCYGC-NH2; disulfide 3-24, 9-29, 13-31, 19-34), the lethality/toxicity result with C57/BL6 mice (injected intracerebroventricularly at active concentrations) was “neither lethal nor toxic”.

Take HsTx1: the “activity … e.g. apamin-sensitive SK channels” value in data set [1] is “inactive”.
